Source: US20260365634A1, “HERBICIDAL PYRAZOLE COMPOUNDS” (SYNGENTA CROP PROTECTION AG, priority 2022, published 2026)

How the values were obtained:
Type in all cases: in vivo
Details in all cases: 250 g/ha, evaluated after 13 days
Setaria faberi (SETFA) [1] = experiment: Post-emergence herbicidal glasshouse test
Protocol: (§1) Seeds of a variety of test species are sown in standard soil in pots Amaranthus palmeri (AMAPA), Amaranthus retoflexus (AMARE), Echinochloa crus-galli (ECHCG), Ipomoea hederacea (IPOHE), Setaria faberi (SETFA). After cultivation for one day (pre-emergence) or after 8 days cultivation (post-emergence) under controlled conditions in a glasshouse (at 24/16 °C, day/night; 14 hours light; 65% humidity), the plants are sprayed with an aqueous spray solution derived from the formulation of the technical active ingredient in acetone/water (50:50) solution containing 0.5% Tween 20 (polyoxyethelyene sorbitan monolaurate, CAS RN 9005-64-5). Compounds are applied at 250 g/ha unless otherwise stated. The test plants are then grown in a glasshouse under controlled conditions in a glasshouse (at 24/16 °C, day/night; 14 hours light; 65% humidity) and watered twice daily. After 13 days for pre and post-emergence, the test is evaluated for the percentage damage caused to the plant. The biological activities are shown in the following table on a five-point scale (5=81-100%; 4=61-80%; 3=41-60%; 2=21-40%; 1=0-20%).

[2] = tested on: Amaranthus retoflexus (AMARE); experiment: Post-emergence herbicidal glasshouse test
Protocol: as §1

[3] = tested on: Echinochloa crus-galli (ECHCG); experiment: Post-emergence herbicidal glasshouse test
Protocol: as §1

[4] = tested on: Amaranthus palmeri (AMAPA); experiment: Post-emergence herbicidal glasshouse test
Protocol: as §1

[5] = tested on: Ipomoea hederacea (IPOHE); experiment: Post-emergence herbicidal glasshouse test
Protocol: as §1

Setaria faberi (SETFA) [6] = experiment: Pre-emergence herbicidal glasshouse test
Protocol: as §1

[7] = tested on: Amaranthus retoflexus (AMARE); experiment: Pre-emergence herbicidal glasshouse test
Protocol: as §1

[8] = tested on: Echinochloa crus-galli (ECHCG); experiment: Pre-emergence herbicidal glasshouse test
Protocol: as §1

[9] = tested on: Amaranthus palmeri (AMAPA); experiment: Pre-emergence herbicidal glasshouse test
Protocol: as §1

[10] = tested on: Ipomoea hederacea (IPOHE); experiment: Pre-emergence herbicidal glasshouse test
Protocol: as §1

Row | Structure (SMILES) | percentage damage caused to the plant (five-point scale), SETFA (Setaria faberi (SETFA) [1]) | percentage damage caused to the plant (five-point scale), AMARE [2] | percentage damage caused to the plant (five-point scale), ECHCG [3] | percentage damage caused to the plant (five-point scale), AMAPA [4] | percentage damage caused to the plant (five-point scale), IPOHE [5] | percentage damage caused to the plant (five-point scale), SETFA (Setaria faberi (SETFA) [6]) | percentage damage caused to the plant (five-point scale), AMARE [7] | percentage damage caused to the plant (five-point scale), ECHCG [8] | percentage damage caused to the plant (five-point scale), AMAPA [9] | percentage damage caused to the plant (five-point scale), IPOHE [10]
1 | CC(C)(C#N)CCCn1nc(C(F)(F)F)cc1Cc1ncc(Cl)cn1 [Compound 1.019] | 1 (0-20%) | 1 (0-20%) | 1 (0-20%) | 1 (0-20%) | 1 (0-20%) | 1 (0-20%) | 1 (0-20%) | 1 (0-20%) | 1 (0-20%) | 1 (0-20%)
2 | CCCCn1nc(C(F)(F)Cl)cc1Cc1ncc(Cl)cn1 [Compound 1.020, 2-[[2-butyl-5-[chloro(difluoro)methyl]pyrazol-3-yl]methyl]-5-chloro-pyrimidine] | 1 (0-20%) | 5 (81-100%) | 2 (21-40%) | 4 (61-80%) | 2 (21-40%) | 4 (61-80%) | 5 (81-100%) | 4 (61-80%) | 5 (81-100%) | 2 (21-40%)
3 | C=CCCn1nc(C(F)F)cc1Cc1ncc(Cl)cn1 [Compound 1.021] | 1 (0-20%) | 3 (41-60%) | 1 (0-20%) | 2 (21-40%) | 1 (0-20%) | 3 (41-60%) | 5 (81-100%) | 2 (21-40%) | 5 (81-100%) | 1 (0-20%)
4 | N#CC1(Cn2nc(C(F)(F)F)cc2Cc2ncc(Cl)cn2)CC1 [Compound 1.022] | 1 (0-20%) | 4 (61-80%) | 1 (0-20%) | 4 (61-80%) | 4 (61-80%) | 4 (61-80%) | 5 (81-100%) | 3 (41-60%) | 4 (61-80%) | 5 (81-100%)
5 | CS(=O)(=O)CCn1nc(C(F)F)cc1Cc1ncc(Cl)cn1 [Compound 1.023] | 1 (0-20%) | 2 (21-40%) | 1 (0-20%) | 2 (21-40%) | 3 (41-60%) | 1 (0-20%) | 1 (0-20%) | 1 (0-20%) | 1 (0-20%) | 2 (21-40%)
6 | FC(F)c1cc(Cc2ncc(Cl)cn2)n(CCBr)n1 [Compound 1.025] | 1 (0-20%) | 1 (0-20%) | 1 (0-20%) | 1 (0-20%) | 1 (0-20%) | 1 (0-20%) | 4 (61-80%) | 2 (21-40%) | 4 (61-80%) | 1 (0-20%)
7 | C=CCn1nc(C(F)F)cc1Cc1ncc(Cl)cn1 [Compound 1.026] | 1 (0-20%) | 1 (0-20%) | 1 (0-20%) | 1 (0-20%) | 1 (0-20%) | 1 (0-20%) | 1 (0-20%) | 1 (0-20%) | 1 (0-20%) | 1 (0-20%)
8 | N#CC1(Cn2nc(C(F)F)cc2Cc2ccc(Cl)cc2)CC1 [Compound 1.027] | 1 (0-20%) | 1 (0-20%) | 1 (0-20%) | 1 (0-20%) | 1 (0-20%) | 2 (21-40%) | 1 (0-20%) | 1 (0-20%) | 1 (0-20%) | 2 (21-40%)
9 | FC(F)(F)c1cc(Cc2ncc(Cl)cn2)n(C2CCCC2)n1 [Compound 1.028] | 2 (21-40%) | 4 (61-80%) | 2 (21-40%) | 2 (21-40%) | 3 (41-60%) | 5 (81-100%) | 5 (81-100%) | 2 (21-40%) | 5 (81-100%) | 1 (0-20%)
10 | CC(C)(C#N)CCCn1nc(C(F)(F)F)cc1Cc1ncc(Cl)cn1 [Compound 1.029] | 2 (21-40%) | 4 (61-80%) | 3 (41-60%) | 3 (41-60%) | 3 (41-60%) | 3 (41-60%) | 5 (81-100%) | 3 (41-60%) | 4 (61-80%) | 5 (81-100%)
11 | CCSCCn1nc(C(F)F)cc1Cc1ncc(Cl)cn1 [Compound 1.030] | 4 (61-80%) | 5 (81-100%) | 2 (21-40%) | 5 (81-100%) | 5 (81-100%) | 1 (0-20%) | 1 (0-20%) | 1 (0-20%) | 1 (0-20%) | 1 (0-20%)
12 | FC(F)CCn1nc(C(F)(F)Cl)cc1Cc1ncc(Cl)cn1 [Compound 1.031] | 4 (61-80%) | 4 (61-80%) | 3 (41-60%) | 4 (61-80%) | 4 (61-80%) | 5 (81-100%) | 5 (81-100%) | 5 (81-100%) | 5 (81-100%) | 5 (81-100%)
13 | FC(F)(Cl)c1cc(Cc2ncc(Cl)cn2)n(CCC2CC2)n1 [Compound 1.032] | 5 (81-100%) | 5 (81-100%) | 4 (61-80%) | 5 (81-100%) | 4 (61-80%) | 5 (81-100%) | 5 (81-100%) | 5 (81-100%) | 5 (81-100%) | 5 (81-100%)
